Results taken from the supplement of paper PMC10307832.

Legend:
Assay in all cases: relative viability (nuclei count vs DMSO), 5 days (fraction); higher = more cells survive
4EGI-1 + Decitabine = compound: O=C(O)C(Cc1ccccc1[N+](=O)[O-])=NNc1nc(-c2ccc(Cl)c(Cl)c2)cs1 (mixture of isomers) [4EGI-1] + Nc1ncn([C@H]2C[C@H](O)[C@@H](CO)O2)c(=O)n1 [Decitabine] (partner 2 µM)
Outline: (§1)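 Relative viability was taken as the ratio of nuclei in treated wells to nuclei in vehicle wells. Lung cancer cell lines in 1536-well plates received compounds by pin tool one day after seeding, either one drug alone or a fixed anchor-drug dose plus five library-drug doses (not always all listed) in √10 steps. Nuclei were counted on 4× images after 5 days of treatment, and values are medians of duplicate plates.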

4EGI-1 + Dasatinib = compound: O=C(O)C(Cc1ccccc1[N+](=O)[O-])=NNc1nc(-c2ccc(Cl)c(Cl)c2)cs1 (mixture of isomers) [4EGI-1] + Cc1nc(Nc2ncc(C(=O)Nc3c(C)cccc3Cl)s2)cc(N2CCN(CCO)CC2)n1 [Dasatinib] (partner 0.075 µM)
Outline: as §1

4EGI-1 + Vorinostat = compound: O=C(O)C(Cc1ccccc1[N+](=O)[O-])=NNc1nc(-c2ccc(Cl)c(Cl)c2)cs1 (mixture of isomers) [4EGI-1] + O=C(CCCCCCC(=O)Nc1ccccc1)NO [Vorinostat] (partner 1 µM)
Outline: as §1

XMD8-85 + Vorinostat = compound: CN1CCN(CC1)C2=CC(=C(C=C2)NC3=NC=C4C(=N3)N(C5=CC=CC=C5C(=O)N4C)C)OC [XMD8-85] + O=C(CCCCCCC(=O)Nc1ccccc1)NO [Vorinostat] (partner 1 µM)
Outline: as §1

Cell Line	relative viability (4EGI-1 + Decitabine; first compound 0.5 µM)	relative viability (4EGI-1 + Decitabine; first compound 1.581 µM)	relative viability (4EGI-1 + Decitabine; first compound 5 µM)	relative viability (4EGI-1 + Decitabine; first compound 15.81 µM)	relative viability (4EGI-1 + Decitabine; first compound 50 µM)	relative viability (4EGI-1 + Dasatinib; first compound 0.5 µM)	relative viability (4EGI-1 + Dasatinib; first compound 1.581 µM)	relative viability (4EGI-1 + Dasatinib; first compound 5 µM)	relative viability (4EGI-1 + Dasatinib; first compound 15.81 µM)	relative viability (4EGI-1 + Dasatinib; first compound 50 µM)	relative viability (4EGI-1 + Vorinostat; first compound 0.5 µM)	relative viability (4EGI-1 + Vorinostat; first compound 1.581 µM)	relative viability (4EGI-1 + Vorinostat; first compound 5 µM)	relative viability (4EGI-1 + Vorinostat; first compound 15.81 µM)	relative viability (4EGI-1 + Vorinostat; first compound 50 µM)	relative viability (XMD8-85 + Vorinostat; first compound 0.08 µM)	relative viability (XMD8-85 + Vorinostat; first compound 0.253 µM)	relative viability (XMD8-85 + Vorinostat; first compound 0.8 µM)	relative viability (XMD8-85 + Vorinostat; first compound 2.53 µM)	relative viability (XMD8-85 + Vorinostat; first compound 8 µM)
UMC-11	0.731	0.609	0.685	0.624	0.419	0.502	0.462	0.406	0.415	0.208	0.448	0.408	0.449	0.446	0.296	0.45	0.367	0.441	0.296	0.22
NCI-H661	0.582	0.568	0.519	0.385	0.341	1.2	0.831	0.785	0.517	0.262	0.856	0.702	0.789	0.681	0.353	0.835	0.788	0.809	0.743	0.588
NCI-H1915	0.27	0.226	0.259	0.247	0.215	0.358	0.257	0.314	0.311	0.163	0.536	0.36	0.599	0.542	0.387	0.556	0.546	0.485	0.5	0.476
NCI-H2009	0.419	0.359	0.389	0.292	0.317	0.344	0.302	0.312	0.269	0.146	0.798	0.701	0.822	0.736	0.375	0.716	0.774		0.621	
RERF-LC-KJ	0.828		0.609	0.444	0.285	0.999		0.641	0.496	0.266	0.796	0.434	0.739	0.58	0.428	0.656	0.671	0.849	0.685	0.43
201T	0.871	0.859	0.886	0.826	0.615	0.574	0.551	0.581	0.568	0.318	1.11	1.03	1.07	0.852	0.559	1.01	1.03	0.961	0.978	0.741
HCC-827	0.263	0.31	0.344		0.219	0.346	0.246	0.345	0.127	0.261	0.785	0.698	0.902		0.274	0.909	0.824	0.802	0.959	0.773
NCI-H838	0.469	0.509	0.389	0.312	0.238	0.322		0.245	0.267	0.19	0.724	0.732	0.738	0.605	0.263	0.729	0.739	0.706	0.641	0.409
NCI-H1734	0.569	0.535	0.519	0.463	0.29	0.562	0.415	0.46	0.396	0.218	0.965	0.67	0.966	0.545	0.329	0.788	0.84	0.826	0.768	0.56
NCI-H441	0.262	0.258	0.251	0.244	0.18	0.609	0.547	0.536	0.565	0.229	0.727	0.909	0.75	0.641	0.414	0.72	0.666	0.859	1.02	0.698
NCI-H1355	0.364	0.36	0.358	0.328	0.336	0.786	0.64	0.682	0.497	0.349	0.698	0.586	0.662	0.595	0.514	0.682	0.564	0.642	0.655	0.545
NCI-H2085	0.536	0.578	0.513	0.488	0.317	0.318	0.229	0.272	0.216	0.271	0.922	0.815	0.823	0.598	0.295	0.774	0.812	0.762	0.756	0.546
NCI-H520	0.568	0.499	0.499	0.562	0.25	0.204	0.276	0.187	0.215	0.153	0.877	0.73	0.887	0.773	0.153	0.774	0.69		0.673	0.331
NCI-H647	0.433	0.309	0.391	0.218	0.155	0.149		0.186	0.167	0.0838	0.837	0.53	0.689	0.477	0.0731	0.573	0.746	0.673	0.632	0.346
NCI-H358	0.218	0.203	0.189	0.138	0.115	0.151	0.16	0.183	0.139	0.0975	0.609	0.613	0.663	0.319	0.0967		0.635	0.71	0.619	0.261
SW 900	0.447	0.406	0.464	0.396	0.283	0.641		0.528	0.487	0.547	0.615	0.59	0.503	0.314	0.15	0.372	0.584	0.434	0.671	0.188
NCI-H1944	0.502		0.427	0.404	0.344	0.22		0.199	0.172	0.135	0.611		0.603	0.489	0.418	0.581		0.544	0.594	0.493
